Test system: GABA induced current in MSNs (GABAA receptors with δ subunits / GABAC receptors)
Assay type: cell-based, mouse

In the case of `Oc1noc2c1CCNC2` [Gaboxadol, 4,5,6,7-tetrahydroisoxazolo (5,4-c) pyridin-3-ol], the “Effect on IGABA” value is reported as “concentration-dependent reduction in IGABA” and the EC50 (read-out: EC50, percent reduction in current by Gaboxadol) is reported as 9.81 ± 3.56 µM.
